Source: US10485815B2, “Substituted nucleosides, nucleotides and analogs thereof” (Alios BioPharma, Inc., priority 2012, dated 2019)
Where two headings read alike, the source gives them in different places.

What was measured:
[1] = molecular target: RSV polymerase (Human respiratory syncytial virus A, UniProt P28887); experiment: biochemical
[2] = tested on: RSV A2 (ATCC: VR-1540); experiment: RSV RT-PCR based assay in HEp-2 cells; format: cell-based; settings: human respiratory syncytial virus
[3] = tested on: Influenza strain A/WSN/33 (H1N1); experiment: microbe, parasite or virus in culture; format: cell-based; settings: A549, 20 h, read-out: % Inhibition
[4] = tested on: human parainfluenza virus 3 (hPIV3, ATCC: VR-93); experiment: Parainfluenza virus-3 (PIV-3) RT-PCR assay in A549 cells; format: cell-based; settings: Human respirovirus 3, 168 h, hPIV3 MOI 0.1, 7 days after infection
[5] = tested on: hPIV3-eGFP; experiment: microbe, parasite or virus in culture; format: cell-based, human parainfluenza virus 3; settings: Human respirovirus 3, A549, 72 h
[6] = 96 h, RT-PCR assay, HEp-2 cells, RSV A2 MOI 0.1, 4 days after infection, read-out: EC50

Chain of RSV polymerase (P28887 whole entry, looked up): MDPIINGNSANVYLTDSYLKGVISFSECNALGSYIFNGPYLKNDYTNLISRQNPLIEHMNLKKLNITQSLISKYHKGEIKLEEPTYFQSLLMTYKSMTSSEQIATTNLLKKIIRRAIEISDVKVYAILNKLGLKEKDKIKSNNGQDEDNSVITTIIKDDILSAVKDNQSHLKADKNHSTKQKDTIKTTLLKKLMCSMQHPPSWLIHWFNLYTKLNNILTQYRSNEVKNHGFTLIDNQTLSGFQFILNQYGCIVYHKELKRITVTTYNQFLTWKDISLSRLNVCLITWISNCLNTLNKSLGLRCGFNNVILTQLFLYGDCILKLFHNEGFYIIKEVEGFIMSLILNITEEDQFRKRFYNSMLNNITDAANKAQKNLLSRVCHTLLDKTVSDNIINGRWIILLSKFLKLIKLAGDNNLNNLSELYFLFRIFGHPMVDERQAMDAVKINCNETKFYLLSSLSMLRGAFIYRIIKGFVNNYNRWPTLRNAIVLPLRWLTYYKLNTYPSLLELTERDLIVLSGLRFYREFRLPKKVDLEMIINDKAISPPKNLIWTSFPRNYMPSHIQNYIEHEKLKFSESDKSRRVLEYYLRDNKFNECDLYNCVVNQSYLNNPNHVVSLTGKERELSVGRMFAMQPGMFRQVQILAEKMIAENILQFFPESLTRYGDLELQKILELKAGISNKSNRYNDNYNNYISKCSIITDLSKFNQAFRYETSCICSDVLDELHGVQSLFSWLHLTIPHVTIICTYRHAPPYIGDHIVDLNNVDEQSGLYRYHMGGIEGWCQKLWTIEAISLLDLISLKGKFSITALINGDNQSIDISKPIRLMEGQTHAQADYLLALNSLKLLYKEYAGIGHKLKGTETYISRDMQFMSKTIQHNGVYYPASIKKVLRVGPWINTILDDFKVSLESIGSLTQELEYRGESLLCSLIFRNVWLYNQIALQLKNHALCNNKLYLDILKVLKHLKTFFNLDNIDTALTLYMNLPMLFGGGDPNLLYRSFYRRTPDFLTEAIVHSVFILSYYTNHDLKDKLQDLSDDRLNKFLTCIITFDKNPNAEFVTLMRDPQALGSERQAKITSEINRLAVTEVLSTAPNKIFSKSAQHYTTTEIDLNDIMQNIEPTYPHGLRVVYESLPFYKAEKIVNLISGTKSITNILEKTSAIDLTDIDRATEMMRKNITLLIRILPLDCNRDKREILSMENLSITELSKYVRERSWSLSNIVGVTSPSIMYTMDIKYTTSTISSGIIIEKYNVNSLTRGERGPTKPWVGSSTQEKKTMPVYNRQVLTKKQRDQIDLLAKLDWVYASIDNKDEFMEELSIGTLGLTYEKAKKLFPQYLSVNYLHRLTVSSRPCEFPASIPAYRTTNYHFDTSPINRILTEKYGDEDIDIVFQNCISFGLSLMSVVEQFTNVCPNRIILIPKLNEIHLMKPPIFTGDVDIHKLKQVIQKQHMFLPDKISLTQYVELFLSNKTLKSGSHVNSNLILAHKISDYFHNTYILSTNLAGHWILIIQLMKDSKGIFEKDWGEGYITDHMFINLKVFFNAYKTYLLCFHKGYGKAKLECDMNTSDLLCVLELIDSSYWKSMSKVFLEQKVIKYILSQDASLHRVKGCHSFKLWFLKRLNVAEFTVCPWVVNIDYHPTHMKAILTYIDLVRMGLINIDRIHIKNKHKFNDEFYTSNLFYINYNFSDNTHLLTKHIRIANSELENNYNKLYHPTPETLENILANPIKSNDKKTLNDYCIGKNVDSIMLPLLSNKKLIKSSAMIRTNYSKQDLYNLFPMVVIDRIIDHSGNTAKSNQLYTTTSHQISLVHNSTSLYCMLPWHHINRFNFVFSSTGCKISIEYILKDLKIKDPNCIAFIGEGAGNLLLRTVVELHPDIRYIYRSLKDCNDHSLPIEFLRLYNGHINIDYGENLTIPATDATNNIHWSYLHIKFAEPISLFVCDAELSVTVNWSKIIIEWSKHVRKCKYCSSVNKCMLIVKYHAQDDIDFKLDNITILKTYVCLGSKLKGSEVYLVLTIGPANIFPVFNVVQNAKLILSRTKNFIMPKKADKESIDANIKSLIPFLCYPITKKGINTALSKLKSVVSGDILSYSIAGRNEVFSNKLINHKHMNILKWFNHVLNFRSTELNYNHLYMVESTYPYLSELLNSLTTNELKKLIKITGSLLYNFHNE

SMILES | EC50 [1] [µM] | EC50 [3] [µM] | EC50 [2, 6] [µM] | further results
Nc1nc(=O)n([C@@H]2O[C@](CCl)(COP(=O)(O)OP(=O)(O)OP(=O)(O)O)[C@H](O)[C@@H]2F)cc1F [Compound 97g] | < 2 | – | – | –
CC[C@]1(COP2(=O)OCc3cccc(C)c3O2)O[C@@H](n2ccc(N)nc2=O)[C@H](F)[C@@H]1O (stereo partly shown) [Compound 14a] | – | – | – | EC50 ([2]; HEp-2, 96 h): < 1 µM
C=C[C@]1(COP(=O)(N[C@@H](C)C(=O)OC(C)C)Oc2ccccc2)O[C@@H](n2ccc(=O)[nH]c2=O)[C@H](F)[C@@H]1O (stereo partly shown) [Compound 17a] | – | 100 to 250 | – | –
CC[C@]1(COC(=O)C(C)C)O[C@@H](n2ccc(N)nc2=O)[C@H](F)[C@@H]1OC(=O)C(C)C [Compound 108a] | – | – | 1 to 10 | –
CC[C@]1(COP(=O)(OCCSC(=O)C(C)(C)C)OCCSC(=O)C(C)(C)C)O[C@@H](n2ccc(N)nc2=O)[C@H](F)[C@@H]1O [Compound 33a] | – | – | < 1 | –
CC(C)C(=O)OC[C@@]1(CCl)O[C@@H](n2ccc(N)nc2=O)[C@H](F)[C@@H]1OC(=O)C(C)C [Compound 46a] | – | – | 1 to 10 | –
C#C[C@]1(COP(=O)(N[C@@H](C)C(=O)OC(C)C)Oc2ccccc2)O[C@@H](n2ccc(=O)[nH]c2=O)[C@H](F)[C@@H]1O (stereo partly shown) [Compound 18a] | – | 100 to 250 | – | –
Nc1ccn([C@@H]2O[C@@]3(CO)CO[C@H]3[C@H]2F)c(=O)n1 [Compound 12a] | – | 100 to 250 | – | –
C#C[C@]1(COP(=O)(O)OP(=O)(O)OP(=O)(O)O)O[C@@H](n2ccc(N)nc2=O)[C@H](F)[C@@H]1O [Compound 36c] | < 2 | – | – | –
Nc1ncnc2c1ncn2[C@@H]1O[C@](CF)(COP(=O)(O)OP(=O)(O)OP(=O)(O)O)[C@@H](O)[C@H]1F [Compound 98c] | < 2 | – | – | –
CO[C@]1(CO)O[C@@H](n2cnc3c(=O)[nH]c(N)nc32)[C@H](F)[C@@H]1O [Compound 28a] | – | 100 to 250 | 1 to 10 | –
O=c1nc(NO)ccn1[C@@H]1O[C@@](CO)(CCl)[C@@H](O)[C@H]1F [Compound 73a] | – | – | 10 to 100 | –
CC(C)(C)C(=O)OCOP(=O)(OCOC(=O)C(C)(C)C)OC[C@@]1(CCl)O[C@@H](n2ccc(N)nc2=O)[C@H](F)[C@@H]1O [Compound 30a] | – | 100 to 250 | < 1 | –
CC[C@]1(CO)O[C@@H](n2cnc3c(=O)[nH]c(N)nc32)[C@H](F)[C@@H]1O [Compound 39a] | – | 20 to 100 | 1 to 10 | –
CC(F)[C@]1(COP(=O)(O)OP(=O)(O)OP(=O)(O)O)O[C@@H](n2ccc(N)nc2=O)[C@@H](F)[C@H]1O (stereo partly shown) [Compound 36e] | < 2 | – | – | –
C=C=C[C@]1(CO)O[C@@H](n2ccc(N)nc2=O)[C@H](F)[C@@H]1O [Compound 11a] | – | – | 1 to 10 | –
CC(F)[C@]1(CO)O[C@@H](n2ccc(N)nc2=O)[C@H](F)[C@@H]1O (stereo partly shown) [Compound 40a] | – | – | – | EC50 [4]: > 100 µM; EC50 [5]: > 100 µM
CC(F)[C@]1(COP(=O)(O)OP(=O)(O)OP(=O)(O)O)O[C@@H](n2ccc(N)nc2=O)[C@H](F)[C@@H]1O (stereo partly shown) [Compound 56e] | < 2 | – | – | –
CC(C)(C)C(=O)OCOP(=O)(OCOC(=O)C(C)(C)C)OC[C@@]1(CCl)O[C@@H](n2ccc(=O)[nH]c2=O)[C@H](F)[C@@H]1O [Compound 45a] | – | – | 10 to 100 | –
CC(C)OC(=O)OCOP(=O)(OCOC(=O)OC(C)C)OC[C@@]1(C2CC2)O[C@@H](n2ccc(N)nc2=O)[C@H](F)[C@@H]1O [Compound 105a] | – | – | 10 to 100 | –
Nc1nc(=O)n([C@@H]2O[C@@](CO)(CCl)[C@@H](O)[C@H]2F)cc1F [Compound 76a] | – | – | < 1 | –
N#C[C@]1(CO)O[C@@H](n2cnc3c(=O)[nH]c(N)nc32)[C@H](F)[C@@H]1O [Compound 26a] | – | 100 to 250 | 1 to 10 | –
Nc1ncnc2c1ncn2[C@@H]1O[C@](CCl)(COP(=O)(O)OP(=O)(O)OP(=O)(O)O)[C@@H](O)[C@H]1F [Compound 98b] | < 2 | – | – | –

SMILES | EC50 [1] [µM] | EC50 [3] [µM] | EC50 [2, 6] [µM] | further results
Nc1ccn([C@@H]2O[C@](CBr)(COP(=O)(O)OP(=O)(O)OP(=O)(O)O)[C@H](O)[C@@H]2F)c(=O)n1 [Compound 97c] | < 2 | – | – | –
CCC[C@]1(CO)O[C@@H](n2ccc(N)nc2=O)[C@H](F)[C@@H]1O [Compound 21a] | – | 100 to 250 | < 1 | –
CCCCC(=O)OC[C@@]1(CCl)O[C@@H](n2ccc(N)nc2=O)[C@H](F)[C@@H]1OC(=O)CCCC [Compound 48a] | – | – | 1 to 10 | –
O=c1ccn([C@@H]2O[C@](CCl)(COP(=O)(O)OP(=O)(O)OP(=O)(O)O)[C@@H](O)[C@H]2F)c(=O)[nH]1 [Compound 56a] | 2 to 10 | – | – | –
[N-]=[N+]=N[C@]1(CO)O[C@@H](n2ccc(N)nc2=O)[C@@H](O)[C@@H]1O [Compound 113a] | – | – | – | EC50 [4]: > 100 µM; EC50 [5]: > 100 µM
COC[C@]1(COP(=O)(O)OP(=O)(O)OP(=O)(O)O)O[C@@H](n2ccc(N)nc2=O)[C@@H](F)[C@H]1O [Compound 97a] | < 2 | – | – | –
Nc1nc2c(ncn2[C@@H]2O[C@@](CO)(CCl)[C@@H](O)[C@H]2F)c(=O)[nH]1 [Compound 81a] | – | – | 1 to 10 | –
C=C[C@]1(COP(=O)(N[C@@H](C)C(=O)OC(C)C)Oc2ccccc2)O[C@@H](n2ccc(N)nc2=O)[C@H](F)[C@@H]1O (stereo partly shown) [Compound 16a] | – | 100 to 250 | – | –
CC[C@]1(COP(=O)(OCOC(=O)C(C)(C)C)OCOC(=O)C(C)(C)C)O[C@@H](n2ccc(N)nc2=O)[C@H](F)[C@@H]1O [Compound 31a] | – | 100 to 250 | 1 to 10 | –
CC[C@]1(COP(=O)(O)OP(=O)(O)OP(=O)(O)O)O[C@@H](n2ccc(N)nc2=O)[C@H](F)[C@@H]1O [Compound 36a] | < 2 | – | – | –
CSC[C@]1(COP(=O)(O)OP(=O)(O)OP(=O)(O)O)O[C@@H](n2ccc(N)nc2=O)[C@@H](F)[C@H]1O [Compound 97b] | < 2 | – | – | –
C=C[C@]1(CO)O[C@@H](n2cnc3c(=O)[nH]c(N)nc32)[C@H](F)[C@@H]1O [Compound 25a, 2′-Deoxy-2′-fluoro-4′-C-(ethenyl)guanosine] | – | < 20 | 10 to 100 | –
Nc1ccn([C@@H]2O[C@](CF)(COP(=O)(O)OP(=O)(O)OP(=O)(O)O)[C@@H](O)[C@H]2F)c(=O)n1 [Compound 56c] | < 2 | – | – | –
C=C(C)[C@]1(COP(=O)(O)OP(=O)(O)OP(=O)(O)O)O[C@@H](n2ccc(N)nc2=O)[C@H](F)[C@@H]1O [Compound 36j] | 2 to 10 | – | – | –
CC(C)CC[C@]1(COP(=O)(O)OP(=O)(O)OP(=O)(O)O)O[C@@H](n2ccc(N)nc2=O)[C@H](F)[C@@H]1O [Compound 36i] | 2 to 10 | – | – | –
C#C[C@]1(CO)O[C@@H](n2ccc(N)nc2=O)[C@H](F)[C@@H]1O [Compound 1a] | – | 100 to 250 | – | EC50 ([2]; HEp-2, 96 h): 10 to 100 µM
C=C[C@]1(CO)O[C@@H](n2ccc(N)nc2=O)[C@H](F)[C@@H]1O [Compound 4a] | – | 100 to 250 | 10 to 100 | EC50 [5]: > 100 µM
C[C@]1(CO)O[C@@H](n2cnc3c(=O)[nH]c(N)nc32)[C@H](F)[C@@H]1O [Compound 82a] | – | – | < 1 | –
COC[C@]1(COP(=O)(OCOC(=O)OC(C)C)OCOC(=O)OC(C)C)O[C@@H](n2ccc(N)nc2=O)[C@H](F)[C@@H]1O [Compound 106a] | – | – | 10 to 100 | –
Nc1ccn([C@@H]2O[C@@](CO)(C3CC3)[C@@H](O)[C@H]2F)c(=O)n1 [Compound 41a] | – | – | 1 to 10 | –
C#C[C@]1(CO)O[C@@H](n2cnc3c(=O)[nH]c(N)nc32)[C@H](F)[C@@H]1O [Compound 27a] | – | 20 to 100 | 1 to 10 | –
Nc1ccn([C@@H]2O[C@@](COP(=O)(O)OP(=O)(O)OP(=O)(O)O)(C3CC3)[C@@H](O)[C@H]2F)c(=O)n1 [Compound 56d] | < 2 | – | – | –
